US20040006784A1, “Methods and compositions for producing plants and microorganisms that express feedback insensitive threonine dehydratase/deaminase” (priority 1997, published 2004)

Key:
[1] = molecular target: T1, threonine dehydratase/deaminase (TD) (Arabidopsis thaliana, UniProt Q9ZSS6, R499C/R544H); conditions: extracts from GM11b (omr1/omr1) plants compared with wild type plants; Mourad and King 1995; cited from earlier work
T1 construct: from tissue; host or cells: extracts of Arabidopsis thaliana GM11b (omr1/omr1) plants
T1 sequence (Q9ZSS6 92-592 R499C/R544H): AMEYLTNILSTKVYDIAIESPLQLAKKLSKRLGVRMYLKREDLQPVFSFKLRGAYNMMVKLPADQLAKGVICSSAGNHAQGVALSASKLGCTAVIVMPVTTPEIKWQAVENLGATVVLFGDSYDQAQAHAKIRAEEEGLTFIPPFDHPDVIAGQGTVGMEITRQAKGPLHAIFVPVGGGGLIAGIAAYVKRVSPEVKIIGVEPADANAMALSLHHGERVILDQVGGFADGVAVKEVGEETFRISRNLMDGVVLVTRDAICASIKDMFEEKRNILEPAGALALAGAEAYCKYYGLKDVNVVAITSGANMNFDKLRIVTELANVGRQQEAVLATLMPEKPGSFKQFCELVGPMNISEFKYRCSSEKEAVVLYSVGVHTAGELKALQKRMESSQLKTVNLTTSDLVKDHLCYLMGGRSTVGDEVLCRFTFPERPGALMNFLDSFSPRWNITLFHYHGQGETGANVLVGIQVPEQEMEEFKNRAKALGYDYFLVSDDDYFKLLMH

[2] = system: Arabidopsis thaliana Columbia wild type; experiment: Germination and growth of seedlings in agar medium supplemented with L-O-methylthreonine; type: in vivo; conditions: 0.2 mM L-O-methylthreonine agar medium, T1 seed screen
Text: Using the vacuum infiltration method of Bent et al. (1994), L-O-methylthreonine-sensitive Arabidopsis thaliana Columbia wild type were transformed with pCM35S-omr1. Ten pots, each with 3-4 plants, were transformed and T1 seeds were harvested from the To transformed plants of each pot separately. […] In a crowded plate, it is possible to identify the transformants by looking at the bottom of the plate, the transformants show root growth while the nontransformants will have none. After three weeks of growth in the 0.2 mM L-O-methylthreonine agar medium, each of the 5 positive transformants was transferred to soil, kept separately and allowed to self-fertilize to produce the T2 seed.

[3] = system: E. coli prototroph host DH5α; experiment: Growth of E. coli DH5α on minimal medium supplemented with L-O-methylthreonine (second complementation experiment); type: cell-based
Method: In the second complementation experiment, the E. coli prototroph host DH5α was transformed with pTrc-td23 or pUCK-td23 and plated on minimal medium supplemented with varying concentrations of the toxic analog L-O-methylthreonine. Both of the constructs were able to confer upon DH5α resistance to 30 μM L-O-methylthreonine. […] Therefore omr1 provides a new environmentally friendly selectable marker for genetic transformation of bacteria.

manmalian cell cultures = conditions: by inhibiting incorporation of Ile into proteins; Rabinovitz et al. 1955; cited from earlier work
[4] = system: Arabidopsis thaliana Columbia wild type; conditions: agar medium; Mourad and King, 1995; cited from earlier work
[5] = system: T2 seedlings of omr1 transgenic Arabidopsis; experiment: T2 seedlings of omr1 transformants on L-O-methylthreonine agar medium; type: in vivo, Arabidopsis thaliana; conditions: 0.2 mM L-O-methylthreonine agar medium, 50 T2 seeds/transformant, each of 5 plates
Method: The T2 seed was harvested from each of the 5 positive T1 transformants and 50 T2 seeds/transformant were planted in a separate petri plate containing 0.2 mM L-O-methylthreonine agar medium. […] This slightly truncated precursor mutant TD was able to translocate to the chloroplast and confer upon transgenic plants resistance to OMT.

SMILES | resistance of TD activity to feedback inhibition by Ile, GM11b extracts versus wild type extracts [1] | appearance of nontransformed seedlings after emergence of the cotyledons [2] | L-O-methylthreonine concentration to which resistance was conferred ([3]; DH5α transformed with pTrc-td23 or pUCK-td23 (omr1), minimal medium) [µM] | growth of bacterial colonies on plates with L-O-methylthreonine ([3]; untransformed DH5α, minimal medium supplemented with varying concentrations of L-O-methylthreonine) | effect on growth of mammalian cell cultures (manmalian cell cultures) | concentration known to completely inhibit the growth of wild type seedlings beyond the cotyledonous stage [4] [mM] | T2 seedlings resistant to L-O-methylthreonine [5] [%]
CC[C@H](C)[C@H](N)C(=O)O [Ile, isoleucine] | about 50 fold |  |  |  |  |  | 
CO[C@H](C)[C@H](N)C(=O)O [L-O-methylthreonine] |  | completely bleached | 30 | No bacterial colonies grew | inhibits growth | 0.2 | ≥ 75
